In patent publication EP2435019B1, “DODECA-2E,4E-DIENE AMIDES AND THEIR USE AS MEDICAMENTS AND COSMETICS” (Dr. August Wolff GmbH & Co. KG Arzneimittel, priority 2009, dated 2010):
Read-outs that look alike come from different tables or passages of the source.

Key:
[1] = target: T1, human recombinant Fatty acid amide hydrolase (Homo sapiens, UniProt O00519); test: Inhibition of human recombinant FAAH, fluorometric method (assay G); type: biochemical; settings: human recombinant enzyme, AMC-anandamide substrate (assay G)
T1 sequence (O00519 1-579): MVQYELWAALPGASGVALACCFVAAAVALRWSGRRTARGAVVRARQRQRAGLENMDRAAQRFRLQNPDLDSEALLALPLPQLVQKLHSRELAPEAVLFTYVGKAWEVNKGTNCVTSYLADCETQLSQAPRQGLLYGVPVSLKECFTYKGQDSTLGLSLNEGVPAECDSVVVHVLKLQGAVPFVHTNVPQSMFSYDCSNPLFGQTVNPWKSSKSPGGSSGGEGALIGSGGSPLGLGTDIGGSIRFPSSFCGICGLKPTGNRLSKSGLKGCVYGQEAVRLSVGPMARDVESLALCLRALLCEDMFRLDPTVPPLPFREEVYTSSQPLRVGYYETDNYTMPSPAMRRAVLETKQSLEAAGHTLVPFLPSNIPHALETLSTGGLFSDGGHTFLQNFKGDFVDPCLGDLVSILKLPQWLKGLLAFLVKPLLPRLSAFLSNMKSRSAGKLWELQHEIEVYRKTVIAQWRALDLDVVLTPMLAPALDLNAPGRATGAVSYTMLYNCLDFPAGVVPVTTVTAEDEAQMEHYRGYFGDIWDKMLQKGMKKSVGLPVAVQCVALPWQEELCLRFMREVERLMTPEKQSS
Description: FAAH activity is measured using the modified method described by Omeir et al., Arachidonoyl ethanolamide-[1,2-14C] as a substrate for anandamide amidase. Life Sci. 1995;56(23-24):1999-2005. Human recombinant enzyme is preincubated with reference compound (methylarachidonlyfluorophosphonate, MAFP) and test compounds for 30 min at room temperature in 50 mM Tris containing 1 mM EDTA and 0.1% fatty acid free BSA (pH 8.0). Substrate (7-amino-4-methyl coumarin-arachidonamide, AMC-anandamide) is then added and incubated for 30 min at room temperature. The reaction is stopped by the addition of 2.5 µl of 10 µM URB597. Released 7-amino-4-methyl coumarin (AMC) is detected by fluorometry in order to ascertain any interactions of test compounds with the FAAH enzyme.

[2] = system: IL-8; test: Induced chemokine IL-8 in HaCaT keratinocytes; type: cell-based, human; settings: Figure 6, 5 µM, tolerogen 10 µg/ml, 6h
Description: • Figure 1: AEA re-uptake inhibition of 2E,4E-dieneamides 1 and 9 into human primary monocytes and U937 cells. […] Data are mean values ± SEM of 3 independent experiments in a sigmoidal dose-response curve. • Figure 2: Concentration-dependent effects of 4 and 5 on FAAH activity. […] The maximal inhibition (32%) of 5 was measured at 1 µM. Data are mean values ± SEM of 3 independent experiments. • Figure 3: Effects of low nM concentrations of N-alkylamide 7 on FAAH activity alone and in combination with the FAAH inhibitor URB597. […] Data are mean values ± SEM of 3 independent experiments. • Figure 4: 1 and 9 inhibit LPS-induced TNF-alpha release into culture medium (measured by ELISA). Human macrophages (10^6 cells) were stimulated with LPS (500 ng/ml) and treated with UCM707 and/or compounds 1 and 9 at 5 µM for 18 h. N = 3 ± SEM. • Figure 5: UCM707 (positive control) and compounds 1 and 9 diminish NO2^- production. Human macrophages (10^6 cells) were stimulated with LPS (500 ng/ml) and treated with UCM707 and/or compounds 1 and 9 at 5 µM for 18 h. Culture supernatants were assayed for nitrite levels, using the Griess reagent as a reflection of NO production. Results are the mean ± SEM of four independent experiments performed in duplicate • Figure 6: In CB receptor expressing human HaCaT keratinocytes (10^6 cells) UCM707 (control) 1 and 9 like the endocannabinoid anandamide (each 5 µM) inhibited tolerogen (10 µg/ml) induced chemokine IL-8 (6h stimulation and incubation). N = 3 ± SEM.

[3] = target: CB2 (Homo sapiens, UniProt P34972); test: Radioligand displacement assay on CB2 receptor; type: binding; parameters: purchased Perkin Elmer RBXCB2M
Sequence of CB2 (P34972 whole entry): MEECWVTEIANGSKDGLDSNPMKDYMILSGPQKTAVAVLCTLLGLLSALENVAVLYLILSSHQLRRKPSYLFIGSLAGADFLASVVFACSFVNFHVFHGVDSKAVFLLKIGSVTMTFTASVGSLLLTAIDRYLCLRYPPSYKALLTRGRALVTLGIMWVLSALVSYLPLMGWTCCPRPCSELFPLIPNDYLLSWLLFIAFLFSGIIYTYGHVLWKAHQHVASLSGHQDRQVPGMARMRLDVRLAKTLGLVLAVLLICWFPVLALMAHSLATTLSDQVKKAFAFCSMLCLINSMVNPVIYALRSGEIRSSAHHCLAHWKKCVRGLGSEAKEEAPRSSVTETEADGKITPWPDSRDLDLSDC

Row | SMILES | FAAH inhibition at 1 µM [1] | tolerogen induced chemokine IL-8 [2] | Ki [3] [µM] | Ki ([3]; displacement of 0.11 nM [3H]CP55,940, membrane recombinantly over-expressing CB2, read-out: Receptor affinity Ki CB2) [µM]
1 | CCCCCCC/C=C/C=C/C(=O)NCCO [Example 1, (2E,4E)-N-(2-hydroxyethyl)dodeca-2,4-diene amide] | 9 % of control | inhibited | > 20 | 
2 | CCCCCCC/C=C/C=C/C(=O)NCCc1cccc(OC)c1 [Example 9, (2E,4E)-N-(3-methoxyphenethyl)dodeca-2,4-diene amide] | 16 % of control | inhibited |  | 9.44 ± 0.889
